Results on 1 molecule are retold here after ChEMBL document CHEMBL1125229 (J Med Chem, 1991).

Molecules are shown by their SMILES.

In the assay the target is Angiotensin-converting enzyme (Homo sapiens, UniProt P12821). In words: Compound was tested for its inhibitory potency against angiotensin I converting enzyme.
Angiotensin-converting enzyme, sequence (P12821 whole entry): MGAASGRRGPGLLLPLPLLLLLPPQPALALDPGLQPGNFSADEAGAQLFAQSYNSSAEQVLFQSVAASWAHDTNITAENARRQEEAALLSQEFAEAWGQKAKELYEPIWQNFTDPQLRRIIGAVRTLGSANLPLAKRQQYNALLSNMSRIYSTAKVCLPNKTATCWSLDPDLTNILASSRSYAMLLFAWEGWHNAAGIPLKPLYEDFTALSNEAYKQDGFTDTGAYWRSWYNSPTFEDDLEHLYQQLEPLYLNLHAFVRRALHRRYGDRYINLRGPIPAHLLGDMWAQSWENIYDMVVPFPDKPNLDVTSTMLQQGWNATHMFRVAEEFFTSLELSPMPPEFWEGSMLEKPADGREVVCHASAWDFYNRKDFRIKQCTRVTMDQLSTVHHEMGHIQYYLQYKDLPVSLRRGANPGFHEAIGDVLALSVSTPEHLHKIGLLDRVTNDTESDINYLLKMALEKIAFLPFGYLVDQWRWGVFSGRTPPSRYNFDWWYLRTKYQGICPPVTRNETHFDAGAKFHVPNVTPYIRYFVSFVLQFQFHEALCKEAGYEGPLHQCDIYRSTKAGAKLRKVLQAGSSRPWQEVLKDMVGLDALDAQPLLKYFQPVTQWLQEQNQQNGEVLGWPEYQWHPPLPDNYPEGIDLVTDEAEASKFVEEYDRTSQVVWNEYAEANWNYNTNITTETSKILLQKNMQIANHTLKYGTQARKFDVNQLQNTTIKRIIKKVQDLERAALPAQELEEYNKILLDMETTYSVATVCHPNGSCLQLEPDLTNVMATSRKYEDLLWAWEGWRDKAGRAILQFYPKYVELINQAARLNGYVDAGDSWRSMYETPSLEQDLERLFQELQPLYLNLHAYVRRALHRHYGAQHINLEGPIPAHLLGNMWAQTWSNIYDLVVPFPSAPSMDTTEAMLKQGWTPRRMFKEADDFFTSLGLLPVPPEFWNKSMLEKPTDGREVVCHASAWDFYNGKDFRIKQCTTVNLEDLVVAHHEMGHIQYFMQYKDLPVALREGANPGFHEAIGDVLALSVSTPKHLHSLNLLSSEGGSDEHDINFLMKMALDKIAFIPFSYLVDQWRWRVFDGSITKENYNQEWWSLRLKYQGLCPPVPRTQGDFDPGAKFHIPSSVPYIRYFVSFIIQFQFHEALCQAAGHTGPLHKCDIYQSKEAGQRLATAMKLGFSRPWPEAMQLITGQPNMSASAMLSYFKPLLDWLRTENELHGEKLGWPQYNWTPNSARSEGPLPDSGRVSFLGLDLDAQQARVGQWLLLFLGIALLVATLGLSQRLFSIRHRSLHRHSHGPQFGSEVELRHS

In general, Ki refers to a measure of affinity in units of concentration, obtained from inhibition or displacement. A low value points to tighter binding. For the molecule `O=C(O)C(CCc1ccccc1)NC1Cc2ccccc2[C@H]2CCC[C@@H](C(=O)O)N2C1=O` (stereo partly specified), the inhibition constant Ki came out at 1.2 nM.
